Read-outs that look alike come from different tables or passages of the source.
Columns and labels:
[1] = biological target: T1, 5-HT1A serotonin receptor (Rattus norvegicus, UniProt P19327); assay: Displacement of [3H] 8-OHDPAT from the 5-HT1A serotonin receptor; type: binding
T1 sequence (P19327 1-422): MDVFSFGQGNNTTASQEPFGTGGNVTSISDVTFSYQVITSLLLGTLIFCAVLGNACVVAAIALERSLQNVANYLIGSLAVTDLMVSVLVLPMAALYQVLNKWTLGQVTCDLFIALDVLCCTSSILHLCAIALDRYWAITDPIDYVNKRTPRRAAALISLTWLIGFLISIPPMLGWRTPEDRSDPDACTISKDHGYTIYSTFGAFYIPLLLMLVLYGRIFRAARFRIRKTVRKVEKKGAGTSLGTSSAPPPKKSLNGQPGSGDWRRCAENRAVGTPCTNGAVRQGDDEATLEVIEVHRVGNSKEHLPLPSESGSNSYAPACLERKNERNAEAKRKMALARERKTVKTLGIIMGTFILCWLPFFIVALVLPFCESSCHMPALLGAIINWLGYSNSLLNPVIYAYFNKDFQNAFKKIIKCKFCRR
Description: High affinity for the serotonin 5-HT1A receptor was established by testing the claimed compound's ability to displace [^3 H] 8-OHDPAT (dipropylaminotetralin) from the 5-HT1A serotonin receptor following the procedure of Hall et al., J. Neurochem. 44, 1685 (1985). […] The anxiolytic activity of buspirone is believed to be, at least partially, due to its 5-HT1A receptor affinity (Vander Maclen et al., Eur. J. Pharmacol. 1986, 129 (1-2) 133-130).

dopamine D-2 receptor = biological target: T2, dopamine D-2 receptor (Rattus norvegicus, UniProt P61169); assay: Affinity for the dopamine D-2 receptor, 3H-spiroperidol binding in homogenized limbic brain tissue
T2 construct: homogenized limbic brain tissue is incubated with; from tissue; host or cells: limbic brain tissue, homogenized
T2 sequence (P61169 whole entry): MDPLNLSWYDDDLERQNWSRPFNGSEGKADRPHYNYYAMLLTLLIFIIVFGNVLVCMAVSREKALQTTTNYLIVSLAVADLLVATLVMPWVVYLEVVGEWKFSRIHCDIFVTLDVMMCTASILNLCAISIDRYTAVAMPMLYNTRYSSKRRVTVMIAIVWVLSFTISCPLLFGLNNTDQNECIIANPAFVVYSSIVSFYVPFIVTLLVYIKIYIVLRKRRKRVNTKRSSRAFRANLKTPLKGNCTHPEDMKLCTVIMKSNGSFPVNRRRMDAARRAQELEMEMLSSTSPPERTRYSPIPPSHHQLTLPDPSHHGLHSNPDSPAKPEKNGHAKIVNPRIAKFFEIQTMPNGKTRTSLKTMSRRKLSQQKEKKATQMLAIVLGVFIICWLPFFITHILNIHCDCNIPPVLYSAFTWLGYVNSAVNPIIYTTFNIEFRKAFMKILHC

[2] = biological target: T1, 5-HT1A serotonin receptor; conditions: standard for anxiolytic activity, comparison substance; cited from earlier work
[3] = 3H-spiroperidol, limbic brain tissue, read-out: IC50 D2 Spiper

Structure (SMILES) | IC50 [1] | IC50 (dopamine D-2 receptor; [3]) | IC50 (dopamine D-2 receptor) | affinity for the 5-HT1A serotonin receptor [2]
O=C(c1c[nH]c2c(Cl)ccc(OCCNCc3ccccc3)c12)C(F)(F)F [Example 2c, 1-[4-(2-Benzylamino-ethoxy)-7-chloro-1H-indol-3-yl]-2,2,2-trifluoro-ethanone] | 102 nM | – | – | –
Clc1c[nH]c2cccc(OCCNCCCCc3ccccc3)c12 [Example 2a, [2-(3-Chloro-1H-indol-4-yloxy)-ethyl]-(4-phenyl-butyl)-amine] | 0.99 nM | 193 nM | – | –
Clc1ccc(OCCNCc2cccs2)c2c(Cl)c[nH]c12 [Example 1f, Thien-2-ylmethyl-[2-(3,7-dichloro-1H-indol-4-yloxy)-ethyl]-amine] | – | 405 nM | – | –
c1ccc(CCCCNCCOc2cccc3[nH]ccc23)cc1 [Example 1a, [2-(1 H-Indol-4-yloxy)-ethyl]-(4-phenyl-butyl)-amine] | 0.71 nM | – | 184 nM | –
c1ccc(CNCCOc2cccc3[nH]ccc23)cc1 [Example 3b, N-Benzyl-[2-(1H-indol-4-yloxy)]-ethylamine] | 36 nM | – | 501 nM | –
Clc1ccc(OCCNCc2ccccc2)c2c(Cl)c[nH]c12 [Example 1c, Benzyl-[2-(3,7-dichloro-1H-indol-4-yloxy)-ethyl]-amine] | 438 nM | 284 nM | – | –
O=C1CC2(CCCC2)CC(=O)N1CCCCN1CCN(c2ncccn2)CC1 [buspirone] | – | – | – | potent affinity
O=C(c1c[nH]c2cccc(OCCNCc3ccccc3)c12)C(F)(F)F [Example 3a, 1-[4-(2-Benzylamino-ethoxy)-1H-indol-3-yl]-2,2,2-trifluoro-ethanone] | 60 nM | 286 nM | – | –
Clc1ccc(OCCNCc2ccccc2)c2cc[nH]c12 [Example 1b, Benzyl-[2-(7-chloro-1H-indol-4-yloxy)-ethyl]-amine] | 386 nM | – | 183 nM | –
